≈ marks a conversion by molar mass, not a printed value.
How the values were obtained:
Assay type in all cases: cell-based
Escherichia coli SOL 90 = assay: MIC, in vitro dilution method, Escherichia coli SOL 90 (Table III); conditions: SOL90; Escherichia coli SOL 90; dilution method; read-out: MIC
Excerpt: (§1) The products of the invention have been studied as regards their pharmacological properties and, more especially, bacteriostatic action. This has been determined in vitro by the dilution method, and the study was on Gram negative strains.
(§2) Results, expressed in minimum inhibiting concentrations (MIC-- μg/ml), are collected in the following table (Table III).

Klebsiella RO 30 = assay: MIC, in vitro dilution method, Klebsiella RO 30 (Table III); conditions: RO30; Klebsiella RO 30; dilution method; read-out: MIC
Excerpt: as §1, §2

Enterobacter RO 154 = assay: MIC, in vitro dilution method, Enterobacter RO 154 (Table III); conditions: RO154; Enterobacter RO 154; dilution method; read-out: MIC
Excerpt: as §1, §2

Pseudomonas RL 112 = assay: MIC, in vitro dilution method, Pseudomonas RL 112 (Table III); conditions: RL112
Excerpt: as §1, §2

Row | Structure (SMILES) | MIC (Escherichia coli SOL 90) [µg/mL] | MIC (Klebsiella RO 30) [µg/mL] | MIC (Enterobacter RO 154) [µg/mL] | MIC (Pseudomonas RL 112) [µg/mL]
1 | CC(N)C(=O)N1CCC(C(=O)OCC2=C(C(=O)O)N3C(=O)C(NC(=O)C(=NOC(C)(C)C(=O)O)c4csc(N)n4)C3[S+]([O-])C2)CC1 (stereo not drawn) [42 781] | 0.25 (≈ 0.366 µM) | 0.125 (≈ 0.183 µM) | 2 (≈ 2.93 µM) | 4 (≈ 5.85 µM)
2 | Cc1cc(CN)ccc1C(=O)OCC1=C(C(=O)O)N2C(=O)C(NC(=O)C(=NOC3(C(=O)O)CCC3)c3csc(N)n3)C2[S+]([O-])C1 (stereo not drawn) [42 849] | 0.125 (≈ 0.189 µM) | 0.125 (≈ 0.189 µM) | 2 (≈ 3.03 µM) | 4 (≈ 6.05 µM)
3 | CC(C)(ON=C(C(=O)NC1C(=O)N2C(C(=O)O)=C(COC(=O)c3ccc(NC(=O)CCCCN)cc3)C[S+]([O-])C12)c1csc(N)n1)C(=O)O (stereo not drawn) [42 689] | 0.125 (≈ 0.174 µM) | 0.25 (≈ 0.347 µM) | 4 (≈ 5.56 µM) | 4 (≈ 5.56 µM)
4 | Cc1c(NC(=O)CN)cccc1C(=O)OCC1=C(C(=O)O)N2C(=O)C(NC(=O)C(=NOC(C)(C)C(=O)O)c3csc(N)n3)C2[S+]([O-])C1 (stereo not drawn) [42 585] | 0.25 (≈ 0.361 µM) | 0.25 (≈ 0.361 µM) | 8 (≈ 11.6 µM) | 4 (≈ 5.78 µM)
5 | CC(N)C(=O)Nc1ccc(C(=O)OCC2=C(C(=O)O)N3C(=O)C(NC(=O)C(=NOC4(C(=O)O)CCC4)c4csc(N)n4)C3[S+]([O-])C2)cc1 (stereo not drawn) [42 818] | 0.125 (≈ 0.178 µM) | 0.125 (≈ 0.178 µM) | 4 (≈ 5.68 µM) | 4 (≈ 5.68 µM)
6 | CC(N)C(=O)Nc1ccc(C(=O)OCC2=C(C(=O)O)N3C(=O)C(NC(=O)C(=NOC(C)(C)C(=O)O)c4csc(N)n4)C3[S+]([O-])C2)cc1 (stereo not drawn) [42 817] | 0.125 (≈ 0.181 µM) | 0.25 (≈ 0.361 µM) | 4 (≈ 5.78 µM) | 4 (≈ 5.78 µM)
7 | CN(C(=O)CN)c1ccc(C(=O)OCC2=C(C(=O)O)N3C(=O)C(NC(=O)C(=NOC(C)(C)C(=O)O)c4csc(N)n4)C3[S+]([O-])C2)cc1 (stereo not drawn) [42 657] | 0.25 (≈ 0.361 µM) | 0.25 (≈ 0.361 µM) | 4 (≈ 5.78 µM) | 8 (≈ 11.6 µM)
8 | NCC(=O)Nc1cccc(C(=O)SCC2=C(C(=O)O)N3C(=O)C(NC(=O)C(=NOC4(C(=O)O)CCC4)c4csc(N)n4)C3[S+]([O-])C2)c1 (stereo not drawn) [compound 42686] | 2 (≈ 2.83 µM) | 1 (≈ 1.42 µM) | 2 (≈ 2.83 µM) | 8 (≈ 11.3 µM)
9 | NCCC(=O)Nc1ccc(C(=O)OCC2=C(C(=O)O)N3C(=O)C(NC(=O)C(=NOC4(C(=O)O)CCC4)c4csc(N)n4)C3[S+]([O-])C2)cc1 (stereo not drawn) [42 658] | 0.125 (≈ 0.178 µM) | 0.125 (≈ 0.178 µM) | 8 (≈ 11.4 µM) | 4 (≈ 5.68 µM)
10 | CC(C)(ON=C(C(=O)NC1C(=O)N2C(C(=O)O)=C(COC(=O)C3CCN(C(=O)CCCN)CC3)C[S+]([O-])C12)c1csc(N)n1)C(=O)O (stereo not drawn) [42 783] | 0.25 (≈ 0.358 µM) | 0.125 (≈ 0.179 µM) | 2 (≈ 2.87 µM) | 8 (≈ 11.5 µM)
11 | Cc1cc(CN)ccc1C(=O)SCC1=C(C(=O)O)N2C(=O)C(NC(=O)C(=NOC3(C(=O)O)CCC3)c3csc(N)n3)C2[S+]([O-])C1 (stereo not drawn) [compound 42851] | 0.5 (≈ 0.739 µM) | 0.25 (≈ 0.369 µM) | 1 (≈ 1.48 µM) | 8 (≈ 11.8 µM)
12 | Cc1c(NC(=O)CCN)cccc1C(=O)OCC1=C(C(=O)O)N2C(=O)C(NC(=O)C(=NOC(C)(C)C(=O)O)c3csc(N)n3)C2[S+]([O-])C1 (stereo not drawn) [42 586] | 0.25 (≈ 0.354 µM) | 0.25 (≈ 0.354 µM) | 16 (≈ 22.7 µM) | 4 (≈ 5.67 µM)
13 | CC(C)(ON=C(C(=O)NC1C(=O)N2C(C(=O)O)=C(CSC(=O)c3cccc(NC(=O)CN)c3)C[S+]([O-])C12)c1csc(N)n1)C(=O)O (stereo not drawn) [compound 42685] | 2 (≈ 2.88 µM) | 1 (≈ 1.44 µM) | 2 (≈ 2.88 µM) | 8 (≈ 11.5 µM)
14 | CC(C)(ON=C(C(=O)NC1C(=O)N2C(C(=O)O)=C(COC(=O)c3cccc(NC(=O)CCCN)c3)C[S+]([O-])C12)c1csc(N)n1)C(=O)O (stereo not drawn) [42 687] | 2 (≈ 2.83 µM) | 1 (≈ 1.42 µM) | 4 (≈ 5.67 µM) | 8 (≈ 11.3 µM)
15 | CC(C)(ON=C(C(=O)NC1C(=O)N2C(C(=O)O)=C(COC(=O)C3CCN(C(=O)CCN)CC3)C[S+]([O-])C12)c1csc(N)n1)C(=O)O (stereo not drawn) [42 782] | 0.25 (≈ 0.366 µM) | 0.125 (≈ 0.183 µM) | 2 (≈ 2.93 µM) | 4 (≈ 5.85 µM)
16 | CC(C)(ON=C(C(=O)NC1C(=O)N2C(C(=O)O)=C(COC(=O)c3ccc(CN)c(Br)c3)C[S+]([O-])C12)c1csc(N)n1)C(=O)O (stereo not drawn) [42 676] | 0.25 (≈ 0.35 µM) | 0.25 (≈ 0.35 µM) | 2 (≈ 2.8 µM) | 8 (≈ 11.2 µM)
17 | CC(C)(ON=C(C(=O)NC1C(=O)N2C(C(=O)O)=C(COC(=O)c3csc(NC(=O)CCN)n3)C[S+]([O-])C12)c1csc(N)n1)C(=O)O (stereo not drawn) [42 587] | 0.25 (≈ 0.358 µM) | 0.25 (≈ 0.358 µM) | 8 (≈ 11.4 µM) | 4 (≈ 5.72 µM)
18 | CC(C)(ON=C(C(=O)NC1C(=O)N2C(C(=O)O)=C(COC(=O)C3CCC(N)CC3)C[S+]([O-])C12)c1csc(N)n1)C(=O)O (stereo not drawn) [42 811] | 0.125 (≈ 0.199 µM) | 0.125 (≈ 0.199 µM) | 2 (≈ 3.19 µM) | 4 (≈ 6.38 µM)
